This note sets out measurements from patent US20200131669A1, “CYCLIC PEPTIDE COMPOUND HAVING HIGH MEMBRANE PERMEABILITY, AND LIBRARY CONTAINING SAME” (Chugai Seiyaku Kabushiki Kaisha, priority 2017, published 2020).

Positions of bridges follow the written chain, without caps; N, C: chain ends. Non-standard residues stand in square brackets, D forms with d. Residues, ends and D or L forms follow the SMILES beside them. *: point of attachment. NMeAbu(3,3-F2-piperidino) = CN[C@@H](CCN1CCCC(F)(F)C1)C(=O)O; Phe(4-CF3) = N[C@@H](Cc1ccc(C(F)(F)F)cc1)C(=O)O; Hyp = O=C(O)[C@@H]1C[C@@H](O)CN1; NMeF = CN[C@@H](Cc1ccccc1)C(=O)O; NMeI = CC[C@H](C)[C@H](NC)C(=O)O; NMeD = CN[C@@H](CC(=O)O)C(=O)O; NMeL = CN[C@@H](CC(C)C)C(=O)O; dNMeL = CN[C@H](CC(C)C)C(=O)O; NMeNva = CCC[C@H](NC)C(=O)O; NMeV = CN[C@H](C(=O)O)C(C)C; Pip = O=C(O)[C@@H]1CCCCN1; Piperidide = C1CCN(*)CC1; dAbu = CC[C@@H](N)C(=O)O; dNMeA = CN[C@H](C)C(=O)O; NBuGly = CCCCNCC(=O)O; Sar = CNCC(=O)O; tBu = CC(C)(C)*

This data set is described as follows: Caco-2 membrane permeability, improved method as used in the following Examples (96-well, 20 to 24 h preincubation). Type of data set: in vitro ADME. The settings on record: human, Caco-2, Caco-2. In outline:
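Papp (cm/sec) was derived from LC/MS of basal samples collected 180 min after apical dosing in FaSSIF/HBSS pH 6.0 with 1% DMSO, against a basal HBSS pH 7.4 receiver containing 4% BSA. Three-week Caco-2 cultures were first preincubated with compound in DMEM+FaSSIF at 37 °C for 20–24 h.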
For the compound `CCO[C@@H]1C[C@H]2C(=O)N(C)[C@@H](CC(C)C)C(=O)N[C@@H]([C@@H](C)CC)C(=O)N(C)[C@@H](CC(C)C)C(=O)N[C@@H](CC(C)C)C(=O)N[C@H](C(=O)N3CCCCC3)CC(=O)N(C)[C@H](C)C(=O)N(C)[C@@H](CC(C)C)C(=O)N[C@@H](CC(C)C)C(=O)N(C)[C@@H](CC(C)C)C(=O)N[C@@H]([C@@H](C)O)C(=O)N2C1` [pd371] ([dNMeA][NMeL]L[NMeL]T[Hyp](Et)[NMeL]I[NMeL]LD-Piperidide; lactam N-11), the Papp A→B at 180 min came out at 3.4 ×10⁻⁶ cm/s.

`CCO[C@@H]1C[C@H]2C(=O)N(C)[C@@H](CC(C)C)C(=O)N[C@@H]([C@@H](C)O)C(=O)N(C)[C@@H](Cc3ccccc3)C(=O)N[C@@H](Cc3ccccc3)C(=O)N(C)[C@@H](CC(C)C)C(=O)N[C@H](C(=O)N3CCCCC3)CC(=O)N[C@H](CC(C)C)C(=O)N3CCC[C@H]3C(=O)N[C@@H](COC(C)(C)C)C(=O)N(C)[C@@H](CC(C)C)C(=O)N2C1` [pd372] ([dL]PS(tBu)[NMeL][Hyp](Et)[NMeL]T[NMeF]F[NMeL]D-Piperidide; lactam N-11): the Papp A→B at 180 min turned out to be 1.4 ×10⁻⁶ cm/s.

`CCO[C@@H]1C[C@H]2C(=O)N(C)[C@@H](CC(C)C)C(=O)N[C@@H]([C@@H](C)O)C(=O)N(C)[C@@H](Cc3ccccc3)C(=O)N[C@@H](Cc3ccccc3)C(=O)N(C)[C@@H](CC(C)C)C(=O)N(C)[C@H](C(=O)N3CCCCC3)CC(=O)N[C@@H](C)C(=O)N(C)[C@@H](C(C)C)C(=O)N[C@@H](COC(C)(C)C)C(=O)N(C)[C@@H](CC(C)C)C(=O)N2C1` [pd373] (A[NMeV]S(tBu)[NMeL][Hyp](Et)[NMeL]T[NMeF]F[NMeL][NMeD]-Piperidide; lactam N-11) yielded a Papp A→B at 180 min of 2 ×10⁻⁶ cm/s. The Papp A→B at 180 min values of the last two compounds are within 1.5-fold of each other.

With `CCO[C@@H]1C[C@H]2C(=O)N[C@H](C(=O)N3CCCCC3)CC(=O)N[C@@H](C(C)C)C(=O)NCC(=O)N(C)[C@@H](CC(C)C)C(=O)N(C)[C@@H](CC(C)C)C(=O)N(C)[C@@H](CC(C)C)C(=O)N(C)[C@@H](Cc3ccccc3)C(=O)N[C@@H]([C@@H](C)O)C(=O)N(C)[C@@H](Cc3ccccc3)C(=O)N(C)[C@@H](CC(C)C)C(=O)N2C1` [pd374] (VG[NMeL][NMeL][NMeL][NMeF]T[NMeF][NMeL][Hyp](Et)D-Piperidide; lactam N-11), the apical-to-basolateral permeability (Papp A→B) at 180 min was found to be 2.5 ×10⁻⁶ cm/s.

The compound `CCO[C@@H]1C[C@H]2C(=O)N[C@@H](Cc3ccccc3)C(=O)N(C)[C@@H](CC(C)C)C(=O)N[C@H](C(=O)N3CCCCC3)CC(=O)N[C@H](CC)C(=O)N(C)[C@@H](CC(C)C)C(=O)N[C@@H](COC(C)(C)C)C(=O)N(C)[C@@H](CC(C)C)C(=O)N[C@@H](CC(C)C)C(=O)N(C)[C@@H](CC(C)C)C(=O)N[C@@H]([C@@H](C)O)C(=O)N2C1` [pd375] ([dAbu][NMeL]S(tBu)[NMeL]L[NMeL]T[Hyp](Et)F[NMeL]D-Piperidide; lactam N-11) registered a Papp A→B at 180 min of 2.9 ×10⁻⁶ cm/s.

In turn, `CCO[C@@H]1C[C@H]2C(=O)N(C)[C@@H](C(C)C)C(=O)N[C@@H]([C@@H](C)O)C(=O)N(C)[C@@H](Cc3ccccc3)C(=O)N[C@@H](Cc3ccccc3)C(=O)N(C)[C@@H](CC(C)C)C(=O)N(C)[C@H](C(=O)N3CCCCC3)CC(=O)N3CCC[C@H]3C(=O)N(C)[C@@H](C(C)C)C(=O)N[C@@H](COC(C)(C)C)C(=O)N(C)[C@@H](CC(C)C)C(=O)N2C1` [pd376] (P[NMeV]S(tBu)[NMeL][Hyp](Et)[NMeV]T[NMeF]F[NMeL][NMeD]-Piperidide; lactam N-11) yielded a Papp A→B at 180 min of 2.4 ×10⁻⁶ cm/s.

Turning to `CCO[C@@H]1C[C@H]2C(=O)N(C)[C@@H](CC(C)C)C(=O)N[C@@H]([C@@H](C)O)C(=O)N(C)[C@@H](CC(C)C)C(=O)N(C)[C@@H](C(C)C)C(=O)N[C@@H](Cc3ccc(C(F)(F)F)cc3)C(=O)N3CCCC[C@H]3C(=O)N[C@@H](CC(C)C)C(=O)N[C@H](C(=O)N3CCCCC3)CC(=O)N(C)[C@H](C)C(=O)N(C)[C@@H](CC(C)C)C(=O)N2C1` [pd377] ([dNMeA][NMeL][Hyp](Et)[NMeL]T[NMeL][NMeV][Phe(4-CF3)][Pip]LD-Piperidide; lactam N-11), the Papp A→B at 180 min turned out to be 1.4 ×10⁻⁶ cm/s.

Compound `CCO[C@@H]1C[C@H]2C(=O)N[C@@H](COC(C)(C)C)C(=O)N(C)[C@@H](CC(C)C)C(=O)N(C)[C@@H](CC(C)C)C(=O)N3CCC[C@H]3C(=O)N[C@@H]([C@@H](C)O)C(=O)N(C)[C@@H](Cc3ccccc3)C(=O)N[C@@H](Cc3ccccc3)C(=O)N(C)[C@@H](CC(C)C)C(=O)N[C@H](C(=O)N3CCCCC3)CC(=O)N[C@H](CC(C)C)C(=O)N2C1` [pd378] ([dL][Hyp](Et)S(tBu)[NMeL][NMeL]PT[NMeF]F[NMeL]D-Piperidide; lactam N-11) displayed a Papp A→B at 180 min of 1.2 ×10⁻⁶ cm/s. The Papp A→B at 180 min values of the last two compounds are within 1.5-fold of each other.

The compound `CCC[C@H]1C(=O)N[C@@H](COC(C)(C)C)C(=O)N(C)[C@@H](CC(C)C)C(=O)N(C)[C@@H](CC(C)C)C(=O)N[C@@H](CC(C)C)C(=O)N[C@@H]([C@@H](C)O)C(=O)N2C[C@H](OCC)C[C@H]2C(=O)N[C@@H](Cc2ccccc2)C(=O)N(C)[C@@H](CC(C)C)C(=O)N[C@H](C(=O)N2CCCCC2)CC(=O)N[C@H](C(C)C)C(=O)N1C` [pd380] ([dV][NMeNva]S(tBu)[NMeL][NMeL]LT[Hyp](Et)F[NMeL]D-Piperidide; lactam N-11) came in with an apical-to-basolateral permeability (Papp A→B) at 180 min of 3.8 ×10⁻⁶ cm/s.

Compound `CCC[C@H]1C(=O)N[C@@H](CC(C)C)C(=O)N(C)[C@@H](CC(C)C)C(=O)N[C@@H]([C@@H](C)O)C(=O)N2C[C@H](OCC)C[C@H]2C(=O)N(C)[C@@H](CC(C)C)C(=O)N[C@@H]([C@@H](C)CC)C(=O)N(C)[C@@H](CC(C)C)C(=O)N2CCC[C@H]2C(=O)N[C@H](C(=O)N2CCCCC2)CC(=O)N(C)[C@H](CC(C)C)C(=O)N1C` [pd381] ([dNMeL][NMeNva]L[NMeL]T[Hyp](Et)[NMeL]I[NMeL]PD-Piperidide; lactam N-11) came in with a Papp A→B at 180 min of 5.6 ×10⁻⁶ cm/s.

As to `CCC[C@H]1C(=O)N[C@@H](CC(C)C)C(=O)N(C)[C@@H](CC(C)C)C(=O)N[C@@H]([C@@H](C)O)C(=O)N2CCC[C@H]2C(=O)N(C)[C@@H](CC(C)C)C(=O)N[C@@H]([C@@H](C)CC)C(=O)N(C)[C@@H](CC(C)C)C(=O)N2C[C@H](OCC)C[C@H]2C(=O)N[C@H](C(=O)N2CCCCC2)CC(=O)N(C)[C@H](CC(C)C)C(=O)N1C` [pd382] ([dNMeL][NMeNva]L[NMeL]TP[NMeL]I[NMeL][Hyp](Et)D-Piperidide; lactam N-11), the Papp A→B at 180 min came out at 4.8 ×10⁻⁶ cm/s.

Compound `CCO[C@@H]1C[C@H]2C(=O)N3CCCC[C@H]3C(=O)N[C@@H](COC(C)(C)C)C(=O)N(C)[C@@H](CC(C)C)C(=O)N[C@@H]([C@@H](C)O)C(=O)N(C)[C@@H](CC(C)C)C(=O)N(C)[C@@H](CC(C)C)C(=O)N(C)[C@@H](CC(C)C)C(=O)N[C@H](C(=O)N3CCCCC3)CC(=O)N[C@H](C(C)C)C(=O)N(C)[C@@H]([C@@H](C)CC)C(=O)N2C1` [pd383] ([dV][NMeI][Hyp](Et)[Pip]S(tBu)[NMeL]T[NMeL][NMeL][NMeL]D-Piperidide; lactam N-11) registered a Papp A→B at 180 min of 2.8 ×10⁻⁶ cm/s.

The compound `CCO[C@@H]1C[C@H]2C(=O)N(C)[C@@H](CC(C)C)C(=O)N[C@@H](COC(C)(C)C)C(=O)N3CCC[C@H]3C(=O)N[C@@H]([C@@H](C)O)C(=O)N(C)[C@@H](CC(C)C)C(=O)N(C)[C@@H](CC(C)C)C(=O)N(C)[C@@H](CC(C)C)C(=O)N[C@H](C(=O)N3CCCCC3)CC(=O)N[C@H](CC(C)C)C(=O)N(C)[C@@H]([C@@H](C)CC)C(=O)N2C1` [pd384] ([dL][NMeI][Hyp](Et)[NMeL]S(tBu)PT[NMeL][NMeL][NMeL]D-Piperidide; lactam N-11) showed a Papp A→B at 180 min of 3.3 ×10⁻⁶ cm/s.

As to `CCO[C@@H]1C[C@H]2C(=O)N[C@@H]([C@@H](C)O)C(=O)N(C)[C@@H](CC(C)C)C(=O)N(C)[C@@H](CC(C)C)C(=O)N(C)[C@@H](CC(C)C)C(=O)N[C@H](C(=O)N3CCCCC3)CC(=O)N[C@H](CC(C)C)C(=O)N(C)[C@@H]([C@@H](C)CC)C(=O)N3CCC[C@H]3C(=O)N(C)[C@@H](CC(C)C)C(=O)N[C@@H](COC(C)(C)C)C(=O)N2C1` [pd385] ([dL][NMeI]P[NMeL]S(tBu)[Hyp](Et)T[NMeL][NMeL][NMeL]D-Piperidide; lactam N-11), the apical-to-basolateral permeability (Papp A→B) at 180 min worked out at 3.4 ×10⁻⁶ cm/s.

Take `CCCCN1CC(=O)N(C)[C@@H](CC(C)C)C(=O)N[C@@H](COC(C)(C)C)C(=O)N(C)[C@@H](Cc2ccccc2)C(=O)N(C)[C@@H](C(C)C)C(=O)N[C@H](C(=O)N2CCCCC2)CC(=O)N[C@H](C)C(=O)N(C)[C@@H](Cc2ccccc2)C(=O)N[C@@H](CC(C)C)C(=O)N(C)[C@@H](CCN2CCCC(F)(F)C2)C(=O)N[C@@H]([C@@H](C)O)C1=O` [pd386] ([dA][NMeF]L[NMeAbu(3,3-F2-piperidino)]T[NBuGly][NMeL]S(tBu)[NMeF][NMeV]D-Piperidide; lactam N-11): the apical-to-basolateral permeability (Papp A→B) at 180 min came out at 2.3 ×10⁻⁶ cm/s.

In turn, `CC(C)C[C@@H]1NC(=O)[C@H](Cc2ccccc2)N(C)C(=O)[C@@H](C(C)C)NC(=O)C[C@@H](C(=O)N2CCCCC2)NC(=O)[C@H](C(C)C)N(C)C(=O)[C@H](Cc2ccccc2)N(C)C(=O)[C@H](COC(C)(C)C)NC(=O)[C@H](CCN2CCCC(F)(F)C2)N(C)C(=O)CN(C)C(=O)[C@H]([C@@H](C)O)NC(=O)[C@H](CC(C)C)N(C)C1=O` [pd387] ([dV][NMeF]L[NMeL]T[Sar][NMeAbu(3,3-F2-piperidino)]S(tBu)[NMeF][NMeV]D-Piperidide; lactam N-11) had a Papp A→B at 180 min of 3.5 ×10⁻⁶ cm/s. This Papp A→B at 180 min is about 1.5-fold higher than that of the compound before.
